Literature values, collected in paper PMC6838683, “Discovery of Human Signaling Systems: Pairing Peptides to G Protein-Coupled Receptors” (Cell, 2019).
Read-outs that look alike come from different tables or passages of the source.

Tested on: human GPCRs
Parameters: method as in Guide to Pharmacology database
Conditions: max reported value, ref Guide to Pharmacology database, cited from earlier work
Description: Supplement mmc1.xlsx, sheet "HumanGPCRLigands" | column: pKi_value; pKd_value; pEC50_value; pIC50_value

[1] = receptor p2ry2_human (P2RY2), P2Y receptors
[2] = receptor p2ry4_human (P2RY4), P2Y receptors
[3] = receptor p2y11_human (P2RY11), P2Y receptors
[4] = receptor gp183_human (GPR183), Class A orphans
[5] = receptor LTB4R2 (lt4r2_human, Q9NPC1)
[6] = receptor LTB4R (lt4r1_human, Q15722)
[7] = receptor p2ry1_human (P2RY1), P2Y receptors
[8] = receptor p2y13_human (P2RY13), P2Y receptors
[9] = receptor grm2_human (GRM2, Q14416)
[10] = receptor grm3_human (GRM3, Q14832)
[11] = receptor grm7_human (GRM7, Q14831)
[12] = receptor grm8_human (GRM8, O00222)
[13] = receptor CYSLTR1 (cltr1_human, Q9Y271)
[14] = receptor CYSLTR2 (cltr2_human, Q9NS75)
[15] = receptor fpr2_human (FPR2, P25090)
[16] = receptor PTAFR (ptafr_human, P25105)
[17] = receptor PTGDR2 (pd2r2_human, Q9Y5Y4)
[18] = receptor PTGDR (pd2r_human, Q13258)
[19] = receptor pe2r2_human (PTGER2), Prostanoid receptors
[20] = receptor pe2r4_human (PTGER4), Prostanoid receptors
[21] = receptor pf2r_human (PTGFR), Prostanoid receptors
[22] = receptor pe2r1_human (PTGER1), Prostanoid receptors
[23] = receptor pe2r3_human (PTGER3), Prostanoid receptors
[24] = receptor ta2r_human (TBXA2R), Prostanoid receptors

For O=c1ccn([C@@H]2O[C@H](CO[P@@](=O)(O)O[P@@](=O)(O)OP(=O)(O)O)[C@@H](O)[C@H]2O)c(=O)[nH]1 (stereo in doubt) [uridine triphosphate], the pEC50_value [1] is listed as 8.1, the pEC50_value [2] is listed as 6.3 and the pEC50_value (receptor p2ry6_human (P2RY6), P2Y receptors) is listed as 5.2. For the same compound, the pEC50_value [3] was 5.2.
For CCCCCC(O)CC(=O)O (stereo not drawn) [3-hydroxyoctanoic acid], the pEC50_value (receptor hcar3_human (HCAR3), Hydroxycarboxylic acid receptors) is given as 5.1.
For CCCCCCCC/C=C\C/C=C\C=C/C(=O)CCCC(=O)O [5-oxo-C20:3], the pEC50_value (receptor OXER1 (oxer1_human, Q8TDS5)) is listed as 8.
In the case of C[C@H](CCCC(C)(C)O)[C@H]1CC[C@H]2[C@@H]3[C@H](O)C=C4C[C@@H](O)CC[C@]4(C)[C@H]3CC[C@]12C [7α,25-dihydroxycholesterol], the pEC50_value [4] is given as 9.9 and the pIC50_value [4] is given as 9.6.
For CCCCCC(O)C=CC=CCC=CCCCC(=O)O (stereo not drawn) [12-hydroxyheptadecatrienoic acid], the pEC50_value [5] is listed as 7.7 and the pIC50_value [5] is listed as 8.6.
For C[C@]12CC[C@@H]3c4ccc(O)cc4CC[C@H]3[C@@H]1CC[C@@H]2O [17β-estradiol], the pKi_value (receptor gper1_human (GPER1), Estrogen (G protein-coupled) receptors) is given as 8.5.
In the case of O=C(O)CCC[C@H](O)\C=C/C=C/C=C/[C@H](O)C/C=C\CCCCCO [20-hydroxy-LTB4], the pKi_value [6] is given as 8.1.
For NC[C@H](O)c1ccc(O)c(O)c1 [(-)-noradrenaline], the pKi_value (receptor ada1a_human (ADRA1A, P35348)) is given as 6.4, the pKi_value (receptor ada1b_human (ADRA1B, P35368)) is given as 6.2 and the pKi_value (receptor ada1d_human (ADRA1D, P25100)) is given as 7.4. The pKi_value (receptor ada2a_human (ADRA2A, P08913)) was 7.4, the pKi_value (receptor ada2b_human (ADRA2B, P18089)) was 6 and the pKi_value (receptor ada2c_human (ADRA2C, P18825)) was 6.8. The pKi_value (receptor adrb1_human (ADRB1, P08588)) was 6, the pKi_value (receptor adrb2_human (ADRB2, P07550)) was 4.8 and the pKi_value (receptor adrb3_human (ADRB3, P13945)) was 6.3.
For Nc1ncnc2c1ncn2[C@@H]1O[C@H](COP(=O)(O)OP(=O)(O)O)[C@@H](O)[C@H]1O [ADP], the pIC50_value [7] is given as 7.2, the pKi_value (receptor p2y12_human (P2RY12), P2Y receptors) is given as 5.9 and the pIC50_value [8] is given as 6.5.
For Nc1ncnc2c1ncn2[C@@H]1O[C@H](COP(=O)(O)OP(=O)(O)OP(=O)(O)O)[C@@H](O)[C@H]1O [ATP], the pIC50_value [7] is listed as 7.8, the pKi_value [7] is listed as 4.8 and the pEC50_value [1] is listed as 7.1. The pEC50_value [2] was 5.4, the pKd_value [2] was 6.2 and the pEC50_value [3] was 5.6. The pIC50_value [8] was 5.4.
For N[C@@H](CCC(=O)O)C(=O)O [L-glutamic acid], the pEC50_value (receptor grm1_human (GRM1, Q13255)) is given as 5, the pEC50_value [9] is given as 5.4 and the pKi_value [9] is given as 4.9. For the same compound, the pEC50_value [10] was 5.4, the pKi_value [10] was 7.4 and the pEC50_value (receptor grm4_human (GRM4, Q14833)) was 5.5. For the same compound, the pEC50_value (receptor grm5_human (GRM5, P41594)) was 5.5, the pEC50_value (receptor grm6_human (GRM6, O15303)) was 5.2 and the pEC50_value [11] was 3. The pKi_value [11] was 3.1, the pEC50_value [12] was 5.6 and the pIC50_value [12] was 5.7.
For C[C@H](O)C(=O)O [L-lactic acid], the pEC50_value (receptor hcar1_human (HCAR1), Hydroxycarboxylic acid receptors) is given as 2.9.
In the case of CCCCC/C=C\C[C@@H](O)/C=C/C=C/C=C\[C@@H](O)CCCC(=O)O [LTB4], the pEC50_value [5] is given as 6.8, the pIC50_value [5] is given as 7.6 and the pKd_value [5] is given as 7.6. The pKi_value [6] was 9.4.
In the case of CCCCC/C=C\C\C=C/C=C/C=C/[C@@H](SC[C@H](NC(=O)CC[C@H](N)C(=O)O)C(=O)NCC(=O)O)[C@@H](O)CCCC(=O)O [LTC4], the pEC50_value [13] is listed as 7.7, the pIC50_value [13] is listed as 6.5 and the pKi_value [13] is listed as 8.1. The pEC50_value [14] was 7.3 and the pIC50_value [14] was 8.5.
In the case of CCCCC/C=C\C\C=C/C=C/C=C/[C@@H](SC[C@H](N)C(=O)NCC(=O)O)[C@@H](O)CCCC(=O)O [LTD4], the pEC50_value [13] is given as 8.5, the pIC50_value [13] is given as 8.1 and the pEC50_value [14] is given as 7.4. The pIC50_value [14] was 8.1 and the pKi_value [14] was 8.1.
For CCCCC/C=C\C\C=C/C=C/C=C/[C@@H](SC[C@H](N)C(=O)O)[C@@H](O)CCCC(=O)O [LTE4], the pEC50_value [13] is listed as 6.7, the pIC50_value [13] is listed as 7 and the pKi_value [13] is listed as 7.8. The pEC50_value [14] was 5.9, the pIC50_value [14] was 5.7 and the pKi_value [14] was 6.5.
In the case of CCCCC[C@H](O)/C=C/C=C\C=C\C=C\[C@@H](O)[C@@H](O)CCCC(=O)O [LXA4], the pEC50_value [15] is listed as 12 and the pKd_value [15] is listed as 9.3.
In the case of CCCCCCCC/C=C\CCCCCCCC(=O)NCCO [N-oleoylethanolamide], the pEC50_value (receptor GPR119 (gp119_human, Q8TDV5)) is listed as 6.3.
For CCCCCCCCCCCCCCCCOC[C@H](COP(=O)([O-])OCC[N+](C)(C)C)OC(C)=O [PAF], the pIC50_value [16] is listed as 8.2 and the pKi_value [16] is listed as 7.9.
For CCCCC[C@H](O)/C=C/[C@H]1C(=O)C[C@H](O)[C@@H]1C/C=C\CCCC(=O)O [PGD2], the pKi_value [17] is given as 8.6, the pKi_value [18] is given as 9.2 and the pKi_value (receptor PTGER1 (pe2r1_human, P34995)) is given as 4.7. The pKi_value [19] was 5, the pEC50_value [20] was 8.8 and the pKi_value [20] was 9. For the same compound, the pKi_value [21] was 7.7.
For CCCCC[C@H](O)/C=C/[C@H]1[C@H](O)CC(=O)[C@@H]1C/C=C\CCCC(=O)O [PGE2], the pKi_value [17] is listed as 5.3, the pKi_value [18] is listed as 7 and the pKi_value [22] is listed as 8. For the same compound, the pKi_value [19] was 8.3, the pKd_value [23] was 8.7 and the pKi_value [23] was 9.5. For the same compound, the pEC50_value [20] was 6.1, the pKi_value [20] was 9.1 and the pKi_value [21] was 6.9. For the same compound, the pKi_value [24] was 4.5.
In the case of CCCCC[C@H](O)/C=C/[C@@H]1[C@@H](C/C=C\CCCC(=O)O)[C@@H](O)C[C@H]1O [PGF2α], the pKi_value [17] is given as 6.4, the pKi_value [18] is given as 6.4 and the pKi_value [22] is given as 6.3. For the same compound, the pKi_value [19] was 6, the pKi_value [23] was 7.4 and the pEC50_value [20] was 6.1. The pKi_value [20] was 9.5, the pKi_value [21] was 8.5 and the pKi_value [24] was 5.1.
For CCCCC[C@H](O)/C=C/[C@@H]1[C@H]2C/C(=C/CCCC(=O)O)O[C@H]2C[C@H]1O [PGI2], the pKi_value [22] is given as 4.8, the pKi_value [20] is given as 5.1 and the pKi_value (receptor pi2r_human (PTGIR), Prostanoid receptors) is given as 7.8.
In the case of CCCCC[C@H](O)/C=C/[C@H]1C(=O)C=C[C@@H]1C/C=C\CCCC(=O)O [PGJ2], the pKi_value [17] is given as 8.2 and the pKi_value [18] is given as 9.
For CCCCC/C=C\C/C=C\C/C=C\C/C=C\CCCC(=O)OC(CO)CO [Peptide 2-arachidonoylglycerol], the pKi_value (receptor CNR2 (cnr2_human, P34972)) is listed as 6.8.
For CCCCCCCC/C=C\CCCCCCCC(=O)OC(CO)COP(=O)(O)O (stereo not drawn) [Peptide 2-oleoyl-LPA], the pEC50_value (receptor gpr35_human (GPR35), Class A orphans) is given as 7.5.
